Key:
[1] = Adverse effect on host cell metabolism (MTS method) in RD cells; assay type: cell-based; details: human, RD (rhabdomyosarcoma) cells, RD host cell metabolism reduced by 50%
Procedure: (§1) The selectivity index (SI = CC50/EC50), a measure for the therapeutic window of the compound in the assay system, was then calculated. The antiviral effect of hinged aromatic compounds that adversely affected the host cell metabolism was likely as a result of a pleiotropic or non-specific effect on the host cell. […].
(§2) The biological activity of the 18 hinged aromatic compounds against EV71 was evaluated in a cell-based assay with live enteroviruses. The EV71 strains were originated from Chang Gung University of Taiwan. The rhabdomyosarcoma (RD) cells, grown for 3–4 days in tissue culture flasks, were harvested and seeded in MEM Rega 3 medium (Gibco, Merelbeke, Belgium) supplemented with fetal bovine serum (FBS, 2.0%, Integro, Merelbeke, Belgium), 200 mM L-glutamine (Gibco, Merelbeke, Belgium), and aqueous 7.5% NaHCO3 (Gibco, Merelbeke, Belgium). The microtitre plates were incubated overnight to produce a non-confluent cell monolayer. Then assay plates were transferred to a liquid handling platform, on which a sample dilution series was prepared at a sample concentration of 0.100 mg/mL or lower in DMSO. After preparation of the hinged compound dilution series, virus was added to the wells with a dilution optimized for each EV71 strain. The final, maximal DMSO concentration that reached in the assay wells with the highest sample input (1.0%) was tolerated well by the cells. The assay plates were returned to the incubator at 37 °C (5.0% CO2) for four days. According to the manufacturers’ instructions (Promega, Leiden, The Netherlands), residual cell viability was then quantified by use of an MTS readout method.

[2] = Lipophilicity by shake-flask method with UV spectrometry; assay type: physicochemical; details: n-octane and water, 25 ± 1 °C, average of three independent experiments
Procedure: The log P values associated with the molecular lipophilicity of all hinged aromatic compounds with polynuclei were obtained by use of the ''shake-flask method'' [46]. The partition coefficient was measured as the ratio of the equilibrium concentrations of a dissolved hinged compound in a two-phase system consisting of n-octane and water, which are immiscible solvents. The temperature was kept constant at 25 ± 1 °C. The analytical method employed was UV spectrometry.

[3] = tested on: EV71 strain BrCr; test: Antiviral activity on the replication of EV71 strain BrCr in RD cells; assay type: cell-based, Enterovirus 71; details: for EC50: Enterovirus A, virus replication inhibited by 50%
Procedure: as §1, §2

SMILES | CC50 at 4 days [1] | logD hydrocarbon water [2] | SI (selectivity index = CC50/EC50) [3] | EC50 [3] | melting point
O=C(c1ccc(-c2cccc(-c3cc(-c4ccccc4)[nH]n3)c2)o1)N1CCOCC1 [21c, Morpholino-(5-[3-(5-phenyl-1H-pyrazol-3-yl)phenyl]furan-2-yl)methanone] | 4.13 ± 0.12 µM | 3.92 | – | – | –
COc1ccc(NC(=O)c2ccc(-c3cccc(-c4cc[nH]n4)c3)o2)cc1 [12b, N-(4-Methoxyphenyl)-5-[3-(1H-pyrazol-3-yl)phenyl]-furan-2-carboxamide] | 21 ± 1.5 µM | 4.15 | 8.70 | 2.41 ± 0.3 µM | –
O=C(NC1CC1)c1ccc(-c2cccc(-c3cc[nH]n3)c2)o1 [compound 13, N-Cyclopropyl-5-[3-(1H-pyrazol-3-yl)phenyl]furan-2-carboxamide] | – | 3.25 | – | 15.1 ± 1 µM | –
COc1ccc(-c2cc(-c3cccc(-c4ccc(C(=O)N5CCOCC5)o4)c3)n[nH]2)cc1 [21e, Morpholino[5-(3-[5-(4-methoxyphenyl)-1H-pyrazol-3-yl]phenyl)furan-2-yl]methanone] | 2.09 ± 0.1 µM | 3.96 | – | < 1.4 µM | –
O=C(c1ccc(-c2cccc(-c3cc(-c4ccccc4)[nH]n3)c2)s1)N1CCOCC1 [21g, Morpholino(5-[3-(5-phenyl-1H-pyrazol-3-yl)phenyl]thiophen-2-yl)methanone] | – | 4.61 | – | 241 ± 3 µM | 239.6 to 241.8 °C
Cn1ccc(-c2cccc(-c3ccc(C(=O)N4CCOCC4)o3)c2)n1 [compound 23, Morpholino(5-[3-(1-methyl-1H-pyrazol-3-yl)phenyl]furan-2-yl)methanone] | – | 2.75 | – | 34.6 ± 1 µM | –
O=C(c1ccc(-c2cccc(-c3cc[nH]n3)c2)o1)N1CCCCCC1 [10c, Azepan-1-yl(5-[3-(1H-pyrazol-3-yl)phenyl]furan-2-yl)methanone] | 81.1 ± 3 µM | 4.22 | 13.1 | 6.16 ± 0.15 µM | –
COCCNC(=O)c1ccc(-c2cccc(-c3cc[nH]n3)c2)s1 [compound 14, N-(2-Methoxyethyl)-5-[3-(1H-pyrazol-3-yl)phenyl]thiophene-2-carboxamide] | 22.4 ± 2.5 µM | 3.15 | – | – | –
CCOC(=O)c1ccc(OCCC2CCN(c3ccc(C)nn3)CC2)cc1 [Pirodavir, reference compound] | > 54 µM | – | – | 0.3 ± 0.1 µM | –
O=C(c1ccc(-c2cccc(-c3cc[nH]n3)c2)o1)N1CCOCC1 [21a] | – | 2.6 | – | 11.6 ± 0.3 µM | –
O=C(c1ccc(-c2cccc(-c3cc[nH]n3)c2)o1)N1CCCCC1 [10b, Piperidin-1-yl(5-[3-(1H-pyrazol-3-yl)phenyl]furan-2-yl)methanone] | 14.3 ± 1 µM | 3.87 | 6.70 | 2.14 ± 0.12 µM | –
Cc1cc(-c2cccc(-c3ccc(C(=O)N4CCOCC4)o3)c2)n[nH]1 [21b, Morpholino-(5-[3-(5-methyl-1H-pyrazol-3-yl)phenyl]furan-2-yl)methanone] | – | 2.87 | – | 13 ± 2.5 µM | –
O=C(c1ccc(-c2cccc(-c3cc[nH]n3)c2)o1)N1CCCC1 [10a, (5-[3-(1H-Pyrazol-3-yl)phenyl]furan-2-yl)(pyrrolidin-1-yl)methanone] | 119 ± 2 µM | 3.42 | 7.30 | 16.2 ± 1 µM | –
Cn1c(C(=O)N2CCOCC2)ccc1-c1cccc(-c2cc[nH]n2)c1 [21j, Morpholino(5-[3-(1H-pyrazol-3-yl)phenyl]-1-methyl-1H-pyrrol-2-yl)methanone] | – | 2.56 | – | 223 ± 2 µM | –
Cc1ccc(-c2cc(-c3cccc(-c4ccc(C(=O)N5CCOCC5)o4)c3)n[nH]2)cc1 [21d, Morpholino[5-(3-[5-(p-tolyl)-1H-pyrazol-3-yl]phenyl)furan-2-yl]methanone] | 3.25 ± 0.3 µM | 4.3 | – | – | –
O=C(c1ccc(-c2cccc(-c3cc(-c4ccc(C(F)(F)F)cc4)[nH]n3)c2)o1)N1CCOCC1 [21f, Morpholino(5-[3-(5-[4-(trifluoromethyl)phenyl]-1H-pyrazol-3-yl)phenyl]furan-2-yl)-methanone] | 3.28 ± 0.11 µM | 4.33 | – | < 1.28 µM | –
O=C(c1ccc(-c2cccc(-c3cc(-c4ccc(C(F)(F)F)cc4)[nH]n3)c2)s1)N1CCOCC1 [21i, Morpholino(5-[3-(5-[4-(trifluoromethyl)phenyl]-1H-pyrazol-3-yl)phenyl]thiophen-2-yl)-methanone] | 76.4 ± 3 µM | 5.04 | 33.4 | 2.29 ± 0.1 µM | –
COc1ccc(-c2cc(-c3cccc(-c4ccc(C(=O)N5CCOCC5)s4)c3)n[nH]2)cc1 [21h, [5-(3-[5-(4-Methoxyphenyl)-1H-pyrazol-3-yl]phenyl)thiophen-2-yl](morpholino)methanone] | 41.9 ± 2.2 µM | 4.64 | 10.2 | 4.1 ± 0.12 µM | –
O=C(Nc1ccc(F)cc1)c1ccc(-c2cccc(-c3cc[nH]n3)c2)o1 [12a, N-(4-Fluorophenyl)-5-[3-(1H-pyrazol-3-yl)phenyl]furan-2-carboxamide] | 4.53 ± 0.1 µM | 4.18 | – | < 1.73 µM | –
